The record followed here is PubChem BioAssay (NCI).

Molecules are shown by their SMILES. “And” between values parts separate entries of the source, which are not always exact repeats. Equal values may be shown once.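 Where inhibition never reached the appropriate level, the endpoint shown equals the highest concentration tested. Otherwise, values were interpolated linearly from a five-concentration, 48-hour dose response in 96-well plates. Here, GI50 denotes the concentration required for 50% inhibition of growth. Definition used: TGI = concentration required for complete inhibition of growth.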 Where only a bound is given, the exact number is not on record here.

Broadly, the GI50 is the concentration at which growth is held to half of that of the control. The TGI is the concentration at which net growth stops.

Common to all, as to test: DTP human tumour cell line panel, 48 h
Experiment [1] relates to EKVX NSCLC.
Experiment [2] has as its system HS 578T breast.
The test system of experiment [3] is KM12 colon.
Experiment [4] concerns MOLT-4 leukemia.
Experiment [5] relates to NCI-H226 lung.
Experiment [6] relates to NCI-H460 lung.
Experiment [7] has as its system SN12C renal.
The subject of experiment [8] is SNB-19 CNS.
Experiment [9] deals with SNB-75 CNS.
For experiment [10], the system named is UACC-257 melanoma.

Turning to `COc1cc(/C=N/Nc2ncnc3c2cnn3C(C)C)ccc1O`, the GI50 in experiment [1] is 11.6 µM; in experiment [2], 5.04 µM; in experiment [3] it was 6.2 µM; in experiment [4] it was 6.53 µM; in experiment [5] it was 9.27 µM; in experiment [6] it was 8.34 µM. The GI50 in experiment [7] was 8.27 µM; in [8] it was 17 µM; in experiment [9] it was 0.506 µM; in [10], 14.9 µM. Moreover, the TGI in [1] was greater than 25 µM; in [2] it was 24.8 µM; in experiment [3] it was 24.7 µM; in experiment [4] it was greater than 20.7 µM; in [5] it was greater than 25 µM; in [6], greater than 25 µM. Besides, the TGI in experiment [7] is greater than 25 µM; in experiment [8] it was greater than 25 µM; in experiment [9], 9.57 µM; in [10], greater than 25 µM.
On to `COc1cc([N+](=O)[O-])c(S(=O)(=O)O)cc1NS(=O)(=O)c1ccc(C)cc1`, for which the total growth inhibition concentration (TGI) in experiment [1], in experiment [2], in experiment [3], in experiment [4], in experiment [5] and in experiment [6] was greater than 100 µM in each case. Also, the concentration for total growth inhibition (TGI) in [7], in experiment [8], in [9] and in experiment [10] was greater than 100 µM in each case.
Regarding `CCNC(C)(C)C(SS)c1ccc(Br)cc1` (configuration not stated), the TGI is greater than 100 µM in experiment [1]; greater than 100 µM in experiment [2]; greater than 100 µM in [3]; 69.3 µM in experiment [4]; greater than 100 µM in experiment [5]; greater than 100 µM in experiment [6]. Besides, the TGI in [7] was greater than 100 µM; in experiment [8], greater than 100 µM; in experiment [9] it was greater than 100 µM; in experiment [10] it was 90.8 µM.
With `NC(=O)c1cc(-c2ccncc2)cc(-c2ccccc2)c1N`, the GI50 in [1] is greater than 20.2 µM; in [2], 6.35 µM; in [3], greater than 25 µM; in experiment [4], 20 µM; in experiment [5], 12.7 µM; in experiment [6], 22.6 µM. The GI50 in experiment [7] is 12.9 µM; in [8], greater than 25 µM; in experiment [9], 4.76 µM; in [10] it was greater than 25 µM. The TGI is greater than 25 µM in experiment [1]; greater than 23.6 µM in experiment [2]; greater than 25 µM in experiment [3]; greater than 25 µM in experiment [4]; greater than 25 µM in experiment [5]; greater than 25 µM in experiment [6]. The TGI in [7] is greater than 25 µM; in experiment [8], greater than 25 µM; in experiment [9], 19.6 µM; in [10] it was greater than 25 µM.
As to `COC(=O)CCC(C)[C@H]1CCC2C3C(C[C@H](OC(C)=O)[C@@]21C)[C@@]1(C)CCC2(C[C@H]1C[C@H]3OC(C)=O)OOC1(CCC(C)CC1)OO2` (some centres not stated), the GI50 in experiment [1] was 3.79 µM and 10.1 µM; in experiment [2], 2.01 µM and 9.68 µM; in experiment [3], 4.03 µM and 38.7 µM; in [4] it was 2.86 µM and 25.5 µM; in [6] it was 4.22 µM and 18.7 µM; in [9] it was 13.7 µM and 40.7 µM. Moreover, in experiment [10], the GI50 is 8.83 µM and 25.2 µM. Besides, the TGI is 21.5 µM and 52.4 µM in [1]; 41.6 µM and 70.7 µM in [2]; greater than 100 µM in [3]; greater than 100 µM in experiment [4]; greater than 100 µM in experiment [5]; greater than 100 µM in [6]. Besides, the TGI in experiment [7], in experiment [8], in [9] and in experiment [10] was greater than 100 µM each time.
Regarding `O=C(/C=C/C12c3ccccc3C(c3ccccc31)C1C(=O)N(c3ccccc3)C(=O)C12)c1ccc(Cl)cc1` (configuration not stated), the GI50 in experiment [1] is 1.85 µM; in [2], 1.82 µM; in experiment [3], 2.18 µM; in experiment [4], 0.759 µM; in experiment [5], 2.04 µM; in [6], 1.64 µM. Also, the GI50 in experiment [7] was 2.34 µM; in experiment [8], 2.68 µM; in experiment [9] it was 1.37 µM; in [10] it was 2.13 µM. Further, the TGI was 9.89 µM in experiment [1]; 5.92 µM in experiment [2]; greater than 100 µM in experiment [3]; greater than 100 µM in experiment [4]; 5.82 µM in [5]; 3.7 µM in experiment [6]. For the same compound, the TGI is greater than 100 µM in experiment [7], greater than 100 µM in experiment [8], 6.77 µM in experiment [9] and 5.5 µM in experiment [10].
On to `Cc1c(C)c2c(c(C)c1NC(=O)/C=C\C(=O)O)CCC(C)(CCCC(C)CCCC(C)CCCC(C)C)O2` (configuration not stated), for which the GI50 was 1.57 µM in experiment [1]; 1.89 µM in experiment [2]; 1.67 µM in experiment [3]; 2.06 µM in experiment [4]; 1.96 µM in experiment [5]; 1.45 µM in [6]. Also, the GI50 was 1.73 µM in [7], 1.94 µM in experiment [8], 1.31 µM in [9] and 1.72 µM in [10]. Moreover, the TGI in [1] is 3.37 µM; in [2], 4.97 µM; in experiment [3], 3.17 µM; in [4], 7.19 µM; in experiment [5] it was 4.38 µM; in [6] it was 2.96 µM. The TGI is 3.3 µM in [7], 3.47 µM in experiment [8], 2.58 µM in experiment [9] and 3.83 µM in [10].
Consider `NC1=NC(c2ccc(Cl)cc2)N(c2ccc(S(=O)(=O)Nc3ncccn3)cc2)C(N)=N1` (configuration not stated), for which the TGI in experiment [1], in [2], in experiment [3], in experiment [4], in experiment [5] and in experiment [6] was greater than 100 µM in each case. The TGI in [7], in [8], in experiment [9] and in experiment [10] was greater than 100 µM in each case.
